In patent EP1077967B1, “BIPHENYL OXO-ACETIC ACIDS USEFUL IN THE TREATMENT OF INSULIN RESISTANCE AND HYPERGLYCEMIA” (Wyeth, priority 1998, dated 1999):
Where a name gives a salt, the structure may show the parent alone. Read-outs that look alike come from different tables or passages of the source.

Tests used:
[1] = target: rat hepatic microsomal PTPases; assay: Inhibition of tri-phosphorylated insulin receptor dodecaphosphopeptide dephosphorylation by rat hepatic PTPases (malachite green); type: biochemical; conditions: rat liver microsomal fraction; for IC50: % Change from Control; for % Change from Control: PTPase activity, compound at 50 µM
[2] = target: T1, Human recombinant PTP1B (Homo sapiens, UniProt P18031); assay: Inhibition of tri-phosphorylated insulin receptor dodecaphosphopeptide dephosphorylation by hPTP1B (malachite green); type: biochemical; conditions: for change of PTP1B activity (percent of phosphatase control) / inhibition at 2.5 µM: compound at 2.5 uM; for inhibition at 2.5 µM: read-out: change of PTP1B activity (percent of phosphatase control)
T1 construct: made in house
T1 sequence (P18031 1-435): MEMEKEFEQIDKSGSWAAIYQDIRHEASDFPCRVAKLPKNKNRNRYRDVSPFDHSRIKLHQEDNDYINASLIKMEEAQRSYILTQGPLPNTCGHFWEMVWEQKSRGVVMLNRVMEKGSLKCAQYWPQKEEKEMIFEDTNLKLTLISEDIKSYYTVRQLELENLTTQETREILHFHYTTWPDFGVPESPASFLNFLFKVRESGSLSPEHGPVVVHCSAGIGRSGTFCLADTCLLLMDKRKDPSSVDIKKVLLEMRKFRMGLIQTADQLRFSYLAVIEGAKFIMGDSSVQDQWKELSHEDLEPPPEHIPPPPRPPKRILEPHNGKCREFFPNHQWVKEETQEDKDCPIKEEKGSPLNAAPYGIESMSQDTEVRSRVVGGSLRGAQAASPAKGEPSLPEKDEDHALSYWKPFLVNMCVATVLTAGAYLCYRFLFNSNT

[3] = recombinant PTP1B, dodecaphosphopeptide substrate

Row | Compound | IC50 [1] [nM] | IC50 [2, 3] [nM] | % Change from Control [1] [%] | also measured
1 | O=C(O)[C@@H](Cc1ccccc1)Oc1ccc(-c2ccc(-c3c(Cc4ccccc4)sc4ccccc34)cc2)cc1Br [Example 36, (2R)-2-[4'-(2-Benzyl-benzo[b]thiophene-3-yl)-3-bromo-biphenyl-4-yloxy]-3-phenyl-propionic acid] | 17900 | 58 |  | 
2 | COc1ccc(Cc2sc3ccccc3c2-c2ccc(-c3ccc(O[C@H](Cc4ccccc4)C(=O)O)cc3)cc2)cc1OC [Example 25, (2R)-2-{4'-[2-(3,4-Dimethoxy-benzyl)-benzo[b]thiophen-3-yl]-biphenyl-4-yloxy}-3-phenyl-propionic acid] | 17900 | 213 |  | 
3 | COc1ccc(Cc2sc3ccccc3c2-c2ccc(-c3ccc(O[C@H](Cc4ccccc4)C(=O)O)cc3)cc2)cc1 [Example 20] | 41600 |  |  | 
4 | O=C(O)[C@@H](Cc1ccccc1)Oc1c(Br)cc(-c2ccc(-c3c(Cc4ccccc4)sc4ccccc34)cc2)cc1Br [Example 37, (2R)-2-[4'-(2-Benzyl-benzo[b]thiophene-3-yl)-3,5-dibromo-biphenyl-4-yloxy]-3-phenyl-propionic acid] | 36800 | 25 |  | 
5 | O=C(O)COc1ccc(-c2ccc(-c3coc4ccccc34)cc2)cc1 [Example 4, (4'-Benzofuran-3-yl-biphenyl-4-yloxy)-acetic acid] |  |  | -11 | change of PTP1B activity (percent of phosphatase control) [2]: -51 (2.5 uM)
6 | O=C(O)[C@H](Oc1ccc(-c2ccc(-c3c(Cc4ccccc4)oc4ccccc34)cc2)cc1)c1ccccc1 [Example 18, (2R)-2-[4'-(2-Benzyl-benzofuran-3-yl)-biphenyl-4-yloxy]-phenyl-acetic acid] | 24200 | 401 |  | 
7 | O=C(O)[C@H](Cc1ccccc1)Oc1ccc(-c2ccc(-c3c(Cc4ccccc4)oc4ccccc34)cc2)cc1 [Example 16, (2S)-2-[4'-(2-Benzyl-benzofuran-3-yl)-biphenyl-4-yloxy]-3-phenyl-propionic acid tromethamine salt] |  | 397 | -53 | 
8 | COc1ccc(Cc2sc3ccccc3c2-c2ccc(-c3ccc(O[C@H](Cc4ccccc4)C(=O)O)cc3)cc2)c(OC)c1 [Example 26, (2R)-2-{4'-[2-(2,4-Dimethoxy-benzyl)-benzo[b]thiophen-3-yl]-biphenyl-4-yloxy}-3-phenyl-propionic acid] | 20000 | 85 |  | 
9 | COc1ccc(-c2cc(-c3ccc(-c4c(Cc5ccccc5)sc5ccccc45)cc3)ccc2O[C@H](Cc2ccccc2)C(=O)O)cc1 [Example 38, (2R)-2-[4-(2-Benzyl-benzo[b]thiophene-3-yl)-4"-methoxy-[1,1';3',1"]terphenyl-4'-yloxy]-3-phenvl-propionic acid] | 19300 | 53 |  | 
10 | CC1(C)Oc2ccc(Cc3sc4ccccc4c3-c3ccc(-c4ccc(O[C@H](Cc5ccccc5)C(=O)O)cc4)cc3)cc2O1 [Example 27, (2R) 2-{4'-[2-(2,2-Dimethyl-benzo[1,3]dioxol-5-ylmethyl)-benzo[b]thiophene-3-yl)-biphenyl-4-yloxy]-3-phenyl-propionic acid] | 24900 | 77 |  | 
11 | O=C(O)COc1ccc(-c2ccc(-c3c(Br)oc4ccccc34)cc2)cc1 [Example 6, [4'-(2-Bromo-benzofuran-3-yl)-biphenyl-4-yloxy]-acetic acid] |  |  | -71 | inhibition at 2.5 µM [2]: 15%
12 | O=C(O)C(Cc1ccccc1)Oc1ccc(-c2ccc(-c3c(Br)oc4ccccc34)cc2)cc1 (stereo not shown) [Example 7, 2-[4'-(2-Bromo-benzofuran-3-yl)-biphenyl-4-yloxy]-3-phenyl-propionic acid] |  |  | -73 | inhibition at 2.5 µM [2]: 58%
13 | O=C(O)[C@@H](Cc1ccccc1)Oc1ccc(-c2ccc(-c3ccsc3Cc3ccccc3)cc2)cc1 [Example 29, (2R)-2-[4'-(2-Benzyl-thiophene-3-yl)-biphenyl-4-yloxy]-3-phenyl-propionic acid] |  | 970 | -19 | 
14 | CCCCc1oc2ccccc2c1-c1ccc(-c2ccc(OCC(=O)O)cc2)cc1 [Example 9, [4'-(2-Butyl-benzofuran-3-yl)-biphenyl-4-yloxy]-acetic acid] |  | 2190 | -75 | 
15 | COc1ccc(-c2cc(-c3ccc(-c4c(Cc5ccccc5)sc5ccccc45)cc3)ccc2OCC(=O)O)cc1 [Example 59] |  | 80 |  | 
16 | COC(=O)[C@H](Cc1ccccc1)Oc1ccc(-c2ccc(-c3c(Cc4ccccc4)oc4ccccc34)cc2)cc1 [Example 23, (2S)-2-[4'-(2-Benzyl-benzofuran-3-yl)-biphenyl-4-yloxy]-3-phenyl-propionic acid methyl ester] |  |  |  | inhibition at 2.5 µM [2]: 36%
17 | O=C(O)c1ccccc1C(=O)NCC[C@@H](Oc1c(Br)cc(-c2ccc(-c3c(Cc4ccccc4)sc4ccccc34)cc2)cc1Br)C(=O)O [Example 45, N-{(3R)-3-[4'-(2-benzyl-benzo[b]thiophen-3-yl)-3,5-dibromo-biphenyl-4-yloxy]-3-carboxy-propyl]-phthalamic acid] |  | 181 |  | 
18 | Cc1sc(Cc2ccccc2)c(-c2ccc(-c3ccc(O[C@H](Cc4ccccc4)C(=O)O)cc3)cc2)c1C [Example 64, (2R)-2-[4'-(2-Benzyl-4,5-dimethyl-thiophen-3-yl)-biphenyl-4-yloxy]-3-phenyl-propionic acid] |  | 512 |  | 
19 | O=C(O)[C@@H](Cc1ccccc1)Oc1ccc(-c2ccc(-c3c(Cc4ccccn4)sc4ccccc34)cc2)cc1 [Example 32, (2R)-3-phenyl-2-[4'-(2-pyridin-2-ylmethyl-benzo[b]thiophene-3-yl)-biphenyl-4-yloxy]-propionic acid sodium salt] |  | 1510 |  | 
20 | CCCCc1sc2ccccc2c1-c1ccc(-c2ccc(OC(C(=O)O)c3ccccc3)cc2)cc1 (stereo not shown) [Example 21, [4'-(2-Butyl-benzo[b]thiophene-3-yl)-biphenyl-4-yloxy]-phenyl-acetic acid] | 35500 | 118 |  | 
21 | Ammonium molybdate tetrahydrate [reference compound] |  | 8700 |  | 
22 | O=C(c1ccccc1)c1oc2ccccc2c1-c1ccc(-c2ccc(O[C@H](Cc3ccccc3)C(=O)O)c([N+](=O)[O-])c2)cc1 [Example 66, (2R)-2-[4'-(2-Benzoyl-benzofuarn-3-yl)-3-nitro-biphenyl-4-yloxy]-3-phenyl-propionic acid] |  |  |  | IC50 [2]: 788 nM
23 | O=C(O)[C@H](CCc1ccccc1)Oc1c(Br)cc(-c2ccc(-c3c(Cc4ccccc4)sc4ccccc34)cc2)cc1Br [Example 41, (2S)-2-[4'-(2-Benzyl-benzo[b]-thiophen-3-yl)-3,5-dibromo-biphenyl-4-yloxy]-4-phenyl-butyric acid] |  | 290 |  | 
24 | O=C(O)[C@@H](Cc1ccccc1)Oc1ccc(-c2ccc(-c3c(C(O)c4ccccc4)oc4ccccc34)cc2)cc1 (stereo partly drawn) [Example 22, (2R)-2-{4'-[2-(Hydroxy-phenyl-methyl)-benzofuran-3-yl)-biphenyl-4-yloxy]-3-phenyl-propionic acid] |  | 118 | -55 | 
25 | O=C(O)C(Cc1ccccc1)Oc1ccc(-c2ccc(-c3coc4ccccc34)cc2)cc1 (stereo not shown) [Example 5, 2-(4'-Benzofuran-3-yl-biphenyl-4-yloxy)-3-phenyl-propionic acid] |  |  | -70 | change of PTP1B activity (percent of phosphatase control) [2]: -47 (2.5 uM)
26 | CCCCc1oc2ccccc2c1-c1ccc(-c2ccc(O)cc2)cc1 [Example 8, 4'-(2-Butyl-benzofuran-3-yl)-biphenyl-4-ol] |  | 740 | -28 | 
